From paper PMC5405701 (ChemMedChem, 2017)
Values joined by “and” are separate entries in the source; they are usually repeats but may differ in a detail not shown here. Equal values may be shown once. Read-outs that look alike come from different tables or passages of the source.

How the values were obtained:
[1] = target: human ERβ ligand binding domain (LBD) (Homo sapiens, UniProt Q92731); assay: competitive fluorometric; conditions: for β/α: ratio of RBA ERβ to RBA ERα
ERα = ERα (Homo sapiens, UniProt P03372); assay: cell-based; type: cell-based; conditions: for Agonist Mode ERα Eff (%E2): maximal response as percentage of response to 10^−8 M E2, HEK293T; for transcriptional activity profile on ERα: reporter gene assay
ERβ = ERβ (Homo sapiens, UniProt Q92731); assay: cell-based; type: cell-based; conditions: for Emax: HEK-293T, 24 h, read-out: Agonist Mode ERβ Eff (%E2); for transcriptional activity profile on ERβ: reporter gene assay, HEK293T
[2] = test system: MCF-7 breast cancer cells; assay: antiproliferative activity, MTT assay, MCF-7; conditions: Homo sapiens, MCF7, 72 h, read-out: MCF-7 Inhibition (%)
VERO cells = assay: toxicity to normal cells, MTT assay, VERO
[3] = target: T1, human ERα ligand binding domain (LBD) (Homo sapiens, UniProt P03372); assay: competitive fluorometric; conditions: relative to parent 2a (compared to 2a and 4a)
T1 sequence (P03372 311-547 limits assumed): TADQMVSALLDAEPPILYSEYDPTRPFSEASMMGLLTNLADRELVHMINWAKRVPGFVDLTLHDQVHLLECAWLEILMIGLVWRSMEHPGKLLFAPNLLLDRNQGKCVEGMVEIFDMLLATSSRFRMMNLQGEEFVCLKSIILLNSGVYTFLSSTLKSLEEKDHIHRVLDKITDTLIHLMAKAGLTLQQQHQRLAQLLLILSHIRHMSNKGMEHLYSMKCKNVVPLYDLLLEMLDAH

Chain of ERα (P03372 whole entry): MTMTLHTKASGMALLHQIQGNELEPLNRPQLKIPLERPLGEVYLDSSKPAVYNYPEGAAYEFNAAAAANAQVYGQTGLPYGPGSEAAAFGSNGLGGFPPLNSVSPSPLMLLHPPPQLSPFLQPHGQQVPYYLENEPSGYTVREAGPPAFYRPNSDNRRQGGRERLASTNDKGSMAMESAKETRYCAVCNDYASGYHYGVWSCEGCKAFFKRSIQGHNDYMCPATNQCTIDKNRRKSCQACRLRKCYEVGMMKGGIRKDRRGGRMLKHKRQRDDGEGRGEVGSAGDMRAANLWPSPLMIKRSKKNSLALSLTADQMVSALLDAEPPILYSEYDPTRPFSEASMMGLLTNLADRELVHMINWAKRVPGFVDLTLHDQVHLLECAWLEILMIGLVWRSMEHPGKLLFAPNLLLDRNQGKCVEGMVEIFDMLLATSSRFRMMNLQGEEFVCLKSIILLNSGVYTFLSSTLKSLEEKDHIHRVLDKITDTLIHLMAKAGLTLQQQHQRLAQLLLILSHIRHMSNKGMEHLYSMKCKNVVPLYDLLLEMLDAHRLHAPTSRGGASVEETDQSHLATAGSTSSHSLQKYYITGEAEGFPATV
Chain of ERβ (Q92731 whole entry): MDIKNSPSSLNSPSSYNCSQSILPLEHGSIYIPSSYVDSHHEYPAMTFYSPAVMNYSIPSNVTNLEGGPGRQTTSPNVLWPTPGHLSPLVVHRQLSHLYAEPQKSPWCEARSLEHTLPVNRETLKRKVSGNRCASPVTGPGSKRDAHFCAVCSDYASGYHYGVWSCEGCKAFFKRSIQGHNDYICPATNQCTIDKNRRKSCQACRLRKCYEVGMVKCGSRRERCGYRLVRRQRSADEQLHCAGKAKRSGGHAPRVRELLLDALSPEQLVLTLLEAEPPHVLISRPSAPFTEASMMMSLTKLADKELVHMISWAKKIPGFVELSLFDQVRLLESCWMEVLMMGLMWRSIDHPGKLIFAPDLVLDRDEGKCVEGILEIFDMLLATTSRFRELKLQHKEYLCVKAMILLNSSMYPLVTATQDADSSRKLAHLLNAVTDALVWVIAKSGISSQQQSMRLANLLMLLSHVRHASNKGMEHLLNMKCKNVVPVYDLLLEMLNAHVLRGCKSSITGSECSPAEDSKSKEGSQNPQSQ
Chain of human ERβ ligand binding domain (LBD) (Q92731 264-498 limits assumed): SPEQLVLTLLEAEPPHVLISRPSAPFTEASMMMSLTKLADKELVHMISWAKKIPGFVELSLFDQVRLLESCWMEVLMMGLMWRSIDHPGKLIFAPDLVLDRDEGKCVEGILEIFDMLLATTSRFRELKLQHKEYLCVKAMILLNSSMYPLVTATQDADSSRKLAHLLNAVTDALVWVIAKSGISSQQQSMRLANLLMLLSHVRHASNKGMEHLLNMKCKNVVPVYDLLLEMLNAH

Structure (SMILES): Oc1ccc(-c2ccc(-c3ccc(O)cc3)[se]2)cc1 [Compound 2a, 2,5-Bis(4-hydroxyphenyl)selenophene]
- β/α [1]: 4.70
- Agonist Mode ERα Eff (%E2) (ERα): 16 ± 2 %E2
- transcriptional activity profile on ERα (ERα; HEK293T): partial antagonist
- Emax (ERβ): 11 ± 4%
- transcriptional activity profile on ERβ (ERβ): partial antagonist
- inhibition at 10 µM [2]: 0%

Structure (SMILES): Cc1cc(O)ccc1-c1ccc(-c2ccc(O)cc2C)[se]1 [Compound 2b, 2,5-Bis(4-hydroxy-2-methylphenyl)selenophene]
- β/α [1]: 1.98
- EC50 (ERα): 1360 nM
- efficacy on ERα, times greater than that of estradiol (ERα; agonist mode): 1.5 times
- Agonist Mode ERα Eff (%E2) (ERα): 157 ± 12 %E2
- transcriptional activity profile on ERα (ERα; HEK293T): superagonist
- EC50 (ERβ): 79 nM
- Emax (ERβ): 82 ± 7%
- transcriptional activity profile on ERβ (ERβ): agonist
- inhibition at 10 µM [2]: 3.4%

Structure (SMILES): Cc1cc(-c2ccc(-c3ccc(O)c(C)c3)[se]2)ccc1O [Compound 2c, 2,5-Bis(4-hydroxy-3-methylphenyl)selenophene]
- β/α [1]: >94
- Agonist Mode ERα Eff (%E2) (ERα): 33 ± 6 %E2
- transcriptional activity profile on ERα (ERα; HEK293T): inactive
- Emax (ERβ): 24 ± 3%
- transcriptional activity profile on ERβ (ERβ): inactive
- inhibition at 10 µM [2]: 9.3%

Structure (SMILES): Cc1cc(-c2ccc(-c3cc(C)c(O)c(C)c3)[se]2)cc(C)c1O [Compound 2d, 2,5-Bis(4-hydroxy-3,5-dimethylphenyl)selenophene]
- β/α [1]: >121
- Agonist Mode ERα Eff (%E2) (ERα): 12 ± 4 %E2
- transcriptional activity profile on ERα (ERα; HEK293T): inactive
- Emax (ERβ): 38 ± 6%
- transcriptional activity profile on ERβ (ERβ): inactive
- inhibition at 10 µM [2]: 0%

Structure (SMILES): Cc1cc(O)cc(C)c1-c1ccc(-c2c(C)cc(O)cc2C)[se]1 [Compound 2e, 2,5-Bis(4-hydroxy-2,6-dimethylphenyl)selenophene]
- β/α [1]: 1.00
- Agonist Mode ERα Eff (%E2) (ERα): −7 ± 3 %E2
- EC50 (ERβ): 434 nM
- Emax (ERβ): 60 ± 4%
- inhibition at 10 µM [2]: 19.3%

Structure (SMILES): Oc1ccc(-c2ccc(-c3ccc(O)cc3F)[se]2)c(F)c1 [Compound 2f, 2,5-Bis(2-fluoro-4-hydroxyphenyl)selenophene]
- β/α [1]: 4.11
- fold better binding to ERβ than 2a ([1]; relative to 2a): 8 fold
- EC50 (ERα): 230 nM
- ERα agonist potency, fold more potent than 2b (ERα; agonist mode, relative to 2b): about 6 fold
- Agonist Mode ERα Eff (%E2) (ERα): 68 ± 2 %E2
- transcriptional activity profile on ERα (ERα; HEK293T): full ERα agonist
- EC50 (ERβ): 170 nM
- Emax (ERβ): 71 ± 1%
- inhibition at 10 µM [2]: 10.5%

Structure (SMILES): Oc1ccc(-c2ccc(-c3ccc(O)cc3Cl)[se]2)c(Cl)c1 [Compound 2g, 2,5-Bis(2-chloro-4-hydroxyphenyl)selenophene]
- β/α [1]: 2.07
- Agonist Mode ERα Eff (%E2) (ERα): 44 ± 13 %E2
- EC50 (ERα; read-out: Agonist Mode ERα EC50, compound alone up to 10^−5 M, HEK293T): 1280 nM
- Emax (ERβ): 14 ± 5%
- inhibition at 10 µM [2]: 19.6%

Structure (SMILES): Oc1ccc(-c2ccc(-c3ccc(O)c(Cl)c3)[se]2)cc1Cl [Compound 2h, 2,5-Bis(3-chloro-4-hydroxyphenyl)selenophene]
- β/α [1]: 5.10
- EC50 (ERα): 40 nM
- Agonist Mode ERα Eff (%E2) (ERα): 49 ± 3 %E2
- transcriptional activity profile on ERα (ERα; HEK293T): partial agonist
- Emax (ERβ): 22 ± 8%
- inhibition at 10 µM [2]: 5.3%

Structure (SMILES): Oc1ccc(F)c(-c2ccc(-c3cc(O)ccc3F)[se]2)c1 [Compound 2i, 2,5-Bis(2-fluoro-5-hydroxyphenyl)selenophene]
- β/α [1]: 0.90
- Agonist Mode ERα Eff (%E2) (ERα): 25 ± 8 %E2
- EC50 (ERβ): 130 nM
- Emax (ERβ): 55 ± 5%
- transcriptional activity profile on ERβ (ERβ): partial agonist
- inhibition at 10 µM [2]: 17.9%

Structure (SMILES): Oc1cc(-c2ccc(-c3ccc(F)c(O)c3)[se]2)ccc1F [Compound 2j, 2,5-Bis(4-fluoro-5-hydroxyphenyl)selenophene]
- β/α [1]: 3.37
- Agonist Mode ERα Eff (%E2) (ERα): 25 ± 8 %E2
- EC50 (ERβ): 150 nM
- Emax (ERβ): 42 ± 10%
- transcriptional activity profile on ERβ (ERβ): partial agonist
- inhibition at 10 µM [2]: 4.4%

Structure (SMILES): CC/C(=C(\c1ccc(O)cc1)c1ccc(OCCN(C)C)cc1)c1ccccc1 [Compound 4OHT, 4-hydroxytamoxifen, reference compound]
- Agonist Mode ERβ Eff (%E2) (ERβ): −1 ± 1 %E2
- Antagonist Mode ERβ Eff (%E2) (ERβ): −20 ± 2 %E2
- toxicity to healthy VERO cells (VERO cells): considerable toxicity
- inhibition at 10 µM [2]: 81.7%

Structure (SMILES): Oc1ccc(-c2c[se]cc2-c2ccc(O)cc2)cc1 [Compound 4a, 3,4-Bis(4-hydroxyphenyl)selenophene]
- β/α [1]: 6.28
- Agonist Mode ERα Eff (%E2) (ERα): 7 ± 3 %E2
- Emax (ERβ): 16 ± 7%
- transcriptional activity profile on ERβ (ERβ): antagonist
- inhibition at 10 µM [2]: 0%

Structure (SMILES): Cc1cc(O)ccc1-c1c[se]cc1-c1ccc(O)cc1C [Compound 4b, 3,4-Bis(4-hydroxy-2-methylphenyl)selenophene]
- β/α [1]: 24.81
- Agonist Mode ERα Eff (%E2) (ERα): 19 ± 4 %E2
- EC50 (ERβ): 34 nM
- Emax (ERβ): 62 ± 8%
- inhibition at 10 µM [2]: 0%

Structure (SMILES): Cc1cc(-c2c[se]cc2-c2ccc(O)c(C)c2)ccc1O [Compound 4c, 3,4-Bis(4-hydroxy-3-methylphenyl)selenophene]
- β/α [1]: 0.87
- EC50 (ERα): 320 nM
- Agonist Mode ERα Eff (%E2) (ERα): 32 ± 8 %E2
- EC50 (ERβ): 1150 nM
- Emax (ERβ): 54 ± 10%
- inhibition at 10 µM [2]: 0%

Structure (SMILES): Oc1ccc(-c2c[se]cc2-c2ccc(O)c(F)c2)cc1F [Compound 4d, 3,4-Bis(3-fluoro-4-hydroxyphenyl)selenophene]
- β/α [1]: 2.67
- Agonist Mode ERα Eff (%E2) (ERα): 21 ± 6 %E2
- Emax (ERβ): 21 ± 3%
- inhibition at 10 µM [2]: 0%

Structure (SMILES): Oc1ccc(-c2c[se]cc2-c2ccc(O)cc2F)c(F)c1 [Compound 4e, 3,4-Bis(2-fluoro-4-hydroxyphenyl)selenophene]
- β/α [1]: 2.19
- Agonist Mode ERα Eff (%E2) (ERα): 35 ± 5 %E2
- Emax (ERβ): 17 ± 2%
- inhibition at 10 µM [2]: 0%

Structure (SMILES): Oc1ccc(-c2cc(Br)c(-c3ccc(O)cc3)[se]2)cc1 [Compound 6a, 3-Bromo-2,5-bis(4-hydroxyphenyl)selenophene]
- fold increase in binding affinity for ERα over 2a [3]: 8 fold and ~10 fold
- β/α [1]: 2.32
- EC50 (ERα): 15 nM
- Agonist Mode ERα Eff (%E2) (ERα): 69 ± 11 %E2
- transcriptional activity profile on ERα (ERα; HEK293T): full agonist
- EC50 (ERβ): 13 nM
- Emax (ERβ): 40 ± 5%
- transcriptional activity profile on ERβ (ERβ): partial agonist
- inhibition at 10 µM [2]: 0%

Structure (SMILES): Cc1cc(-c2cc(Br)c(-c3ccc(O)c(C)c3)[se]2)ccc1O [Compound 6c, 3-Bromo-2,5-bis(4-hydroxy-3-methylphenyl)selenophene]
- β/α [1]: 4.40
- Agonist Mode ERα Eff (%E2) (ERα): −3 ± 1 %E2
- EC50 (ERβ): 441 nM
- Emax (ERβ): 46 ± 1%
- inhibition at 10 µM [2]: 26.1%

Structure (SMILES): Cc1cc(-c2cc(Br)c(-c3cc(C)c(O)c(C)c3)[se]2)cc(C)c1O [Compound 6d, 3-Bromo-2,5-bis(4-hydroxy-3,5-dimethylphenyl)selenophene]
- β/α [1]: 0.43
- Agonist Mode ERα Eff (%E2) (ERα): 16 ± 4 %E2
- Emax (ERβ): 15 ± 6%
- inhibition at 10 µM [2]: 26.5%

Structure (SMILES): Oc1ccc(-c2cc(Br)c(-c3ccc(O)c(Cl)c3)[se]2)cc1Cl [Compound 6e, 3-Bromo-2,5-bis(3-chloro-4-hydroxyphenyl)selenophene]
- β/α [1]: 0.25
- Agonist Mode ERα Eff (%E2) (ERα): −23 ± 3 %E2
- Emax (ERβ): 27 ± 2%
- inhibition at 10 µM [2]: 11.3%

Structure (SMILES): Oc1cc(-c2cc(Br)c(-c3ccc(F)c(O)c3)[se]2)ccc1F [Compound 6f, 3-Bromo-2,5-bis(4-fluoro-5-hydroxyphenyl)selenophene]
- β/α [1]: 0.28
- EC50 (ERα): 120 nM
- efficacy on ERα, times greater than that of estradiol (ERα; agonist mode): 2.2 times
- Agonist Mode ERα Eff (%E2) (ERα): 226 ± 28 %E2
- transcriptional activity profile on ERα (ERα; HEK293T): superagonist
- EC50 (ERβ): 300 nM
- Emax (ERβ): 31 ± 7%
- inhibition at 10 µM [2]: 0%

Structure (SMILES): Oc1ccc(-c2cc(Br)c(-c3ccc(O)cc3F)[se]2)c(F)c1 [Compound 6g, 3-Bromo-2,5-bis(2-fluoro-4-hydroxyphenyl)selenophene]
- β/α [1]: 1.30
- Agonist Mode ERα Eff (%E2) (ERα): 73 ± 9 %E2
- Emax (ERβ): 50 ± 3%
- inhibition at 10 µM [2]: 8.1%

Structure (SMILES): Oc1ccc(-c2cc(-c3ccc(O)cc3)c(-c3ccc(O)cc3)[se]2)cc1 [Compound 8a, 2,3,5-Tris(4-hydroxyphenyl)selenophene]
- β/α [1]: 1.15
- Agonist Mode ERα Eff (%E2) (ERα): −4 ± 3 %E2
- transcriptional activity profile on ERα (ERα; HEK293T): antagonist
- Emax (ERβ): 12 ± 3%
- transcriptional activity profile on ERβ (ERβ): antagonist
- inhibition at 10 µM [2]: 29.6%

Structure (SMILES): Cc1cc(-c2cc(-c3ccc(O)c(C)c3)c(-c3ccc(O)c(C)c3)[se]2)ccc1O [Compound 8b, 2,3,5-Tris(4-hydroxy-3-methylphenyl)selenophene]
- β/α [1]: 9.92
- EC50 (ERα): 320 nM
- Agonist Mode ERα Eff (%E2) (ERα): 112 ± 29 %E2
- transcriptional activity profile on ERα (ERα; HEK293T): superagonists
- EC50 (ERβ): 33 nM
- Emax (ERβ): 77 ± 8%
- inhibition at 10 µM [2]: 16.6%

Structure (SMILES): Cc1cc(-c2cc(-c3cc(C)c(O)c(C)c3)c(-c3cc(C)c(O)c(C)c3)[se]2)cc(C)c1O [Compound 8c, 2,3,5-Tris(4-hydroxy-3,5-dimethylphenyl)selenophene]
- β/α [1]: 0.55
- EC50 (ERα): 270 nM
- Agonist Mode ERα Eff (%E2) (ERα): 74 ± 4 %E2
- EC50 (ERβ): 17 nM
- Emax (ERβ): 69 ± 5%
- toxicity to healthy VERO cells (VERO cells): nontoxic
- inhibition at 10 µM [2]: 75.3%
